Here are results for one compound from patent publication US8785430B2, “Compound that can inhibit UBC13-UEV interactions, pharmaceutical compositions and therapeutic uses” (Consejo Superior de Investigaciones Cientificas, priority 2006, dated 2014).

One data set concerns PC-3 cells. Description: CyQuant cell count, sensitization to doxorubicin. It is filed as cell-based, human. To be noted: 100 μM of compound Ia. On the procedure: The addition of 100 μM of Ia reduced the IC50 of doxorubicin to 0.1 μM for PC-3 cells and the IC50 of etoposide to 0.04 μM for HeLa cells. Therefore, the treatment with 100 μM of compound Ia causes a sensitization to the cytotoxic effects of doxorubicin of 5 times (PC-3 cells) and a sensitization to the cytotoxic effects of etoposide of 30 times (HeLa cells).

The next data set has as its system HeLa cells. In words: CyQuant cell count, sensitization to etoposide. To be noted: HeLa cells, 100 μM of compound Ia.

Molecules are shown by their SMILES.

Regarding `NC(=O)CN(CCc1ccccn1)C(=O)C1CC(=O)N(CCc2ccc(F)cc2)CC(=O)N1CCc1ccc(F)cc1` (centres unmarked) [Ia, N-aminocarbamoylmethyl-N-(2′-(2″pyridyl)ethyl)-1,4-bis[2′-(4″-fluorophenyl)ethyl]-3,7-dioxo-[1,4]diazepane-5-carboxamide], in the data set on PC-3 cells, the “sensitization to the cytotoxic effects of doxorubicin” value came out at 5 times. For the same compound, the “sensitization to the cytotoxic effects of etoposide” value in the data set on HeLa cells worked out at 30 times.
